According to ChEMBL document CHEMBL1275575, “Susceptibility of Mycobacterium bovis BCG vaccine strains to antituberculous antibiotics” (Antimicrob Agents Chemother, 2009):
Values after ≈ are worked out from the molar mass of the structure shown.

How the values were obtained:
Assay type in all cases: functional
[1] = system: Mycobacterium tuberculosis variant bovis; assay: Antibacterial activity against Mycobacterium bovis BCG-japan
[2] = system: Mycobacterium tuberculosis variant bovis; assay: Antibacterial activity against Mycobacterium bovis BCG-Connaught
[3] = system: Mycobacterium tuberculosis variant bovis; assay: Antibacterial activity against Mycobacterium bovis BCG-Pasteur
[4] = system: Mycobacterium tuberculosis variant bovis; assay: Antibacterial activity against Mycobacterium bovis BCG-Denmark
[5] = system: Mycobacterium tuberculosis variant bovis; assay: Antibacterial activity against Mycobacterium bovis BCG-Glaxo
[6] = system: Mycobacterium tuberculosis variant bovis; assay: Antibacterial activity against Mycobacterium bovis BCG-Russia
[7] = system: Mycobacterium tuberculosis variant bovis; assay: Antibacterial activity against Mycobacterium bovis BCG-Connaught by Wayne's indirect method
[8] = system: Mycobacterium tuberculosis variant bovis; assay: Antibacterial activity against Mycobacterium bovis BCG-Moreau

Structure (SMILES)	MIC [1] [mg/L]	MIC [2] [mg/L]	MIC [3] [mg/L]	MIC [4] [mg/L]	MIC [5] [mg/L]	MIC [6] [mg/L]	MIC [7] [mg/L]	MIC [8] [mg/L]
CO[C@H]1/C=C/O[C@@]2(C)Oc3c(C)c(O)c4c(O)c(c(/C=N/N5CCN(C)CC5)c(O)c4c3C2=O)NC(=O)/C(C)=C\C=C\[C@H](C)[C@H](O)[C@@H](C)[C@@H](O)[C@@H](C)[C@H](OC(C)=O)[C@@H]1C [RIFAMPIN]	0.063 (≈ 0.0766 µM)	< 0.031	0.063 (≈ 0.0766 µM)	0.016 (≈ 0.0194 µM)	0.031 (≈ 0.0377 µM)	–	–	–
NC[C@H]1O[C@H](O[C@H]2[C@H](O)[C@@H](O[C@H]3O[C@H](CO)[C@@H](O)[C@H](N)[C@H]3O)[C@H](N)C[C@@H]2N)[C@H](O)[C@@H](O)[C@@H]1O [KANAMYCIN]	–	1 (≈ 2.06 µM)	–	–	–	–	–	–
CC1COc2c(N3CCN(C)CC3)c(F)cc3c(=O)c(C(=O)O)cn1c23 (stereo unspecified) [OFLOXACIN]	–	< 0.031	0.75 (≈ 2.08 µM)	0.75 (≈ 2.08 µM)	–	1 (≈ 2.77 µM)	–	–
CC[C@@H](CO)NCCN[C@@H](CC)CO [ETHAMBUTOL]	2 (≈ 9.79 µM)	2 (≈ 9.79 µM)	–	2.5 (≈ 12.2 µM)	2.5 (≈ 12.2 µM)	–	–	–
O=C(O)c1cn(C2CC2)c2cc(N3CCNCC3)c(F)cc2c1=O [CIPROFLOXACIN]	–	0.125 (≈ 0.377 µM)	–	–	–	–	–	–
NNC(=O)c1ccncc1 [ISONIAZID]	0.06 (≈ 0.438 µM)	0.125 (≈ 0.911 µM)	0.1 (≈ 0.729 µM)	0.4 (≈ 2.92 µM)	–	–	–	–
NCC[C@H](O)C(=O)N[C@@H]1C[C@H](N)[C@@H](O[C@H]2O[C@H](CN)[C@@H](O)[C@H](O)[C@H]2O)[C@H](O)[C@H]1O[C@H]1O[C@H](CO)[C@@H](O)[C@H](N)[C@H]1O [AMIKACIN]	–	0.125 (≈ 0.213 µM)	–	–	–	–	–	–
NC(=O)c1cnccn1 [PYRAZINAMIDE]	–	–	–	–	–	–	> 800	–
CC[C@H]1OC(=O)[C@H](C)[C@@H](O[C@H]2C[C@@](C)(OC)[C@@H](O)[C@H](C)O2)[C@H](C)[C@@H](O[C@@H]2O[C@H](C)C[C@H](N(C)C)[C@H]2O)[C@](C)(OC)C[C@@H](C)C(=O)[C@H](C)[C@@H](O)[C@]1(C)O [CLARITHROMYCIN]	–	0.25 (≈ 0.334 µM)	0.3 (≈ 0.401 µM)	0.07 (≈ 0.0936 µM)	0.15 (≈ 0.201 µM)	–	–	2 (≈ 2.67 µM)
CO[C@H]1/C=C/O[C@@]2(C)Oc3c(C)c(O)c4c(c3C2=O)C2=NC3(CCN(CC(C)C)CC3)NC2=C(NC(=O)/C(C)=C\C=C\[C@H](C)[C@H](O)[C@@H](C)[C@@H](O)[C@@H](C)[C@H](OC(C)=O)[C@@H]1C)C4=O [RIFABUTIN]	0.063 (≈ 0.0744 µM)	0.063 (≈ 0.0744 µM)	0.063 (≈ 0.0744 µM)	0.016 (≈ 0.0189 µM)	0.016 (≈ 0.0189 µM)	–	–	–
CC[C@H]1OC(=O)[C@H](C)[C@@H](O[C@H]2C[C@@](C)(OC)[C@@H](O)[C@H](C)O2)[C@H](C)[C@@H](O[C@@H]2O[C@H](C)C[C@H](N(C)C)[C@H]2O)[C@](C)(O)C[C@@H](C)CN(C)[C@H](C)[C@@H](O)[C@]1(C)O [AZITHROMYCIN]	–	16 (≈ 21.4 µM)	1 (≈ 1.34 µM)	–	–	–	–	–
CCc1cc(C(N)=S)ccn1 [ETHIONAMIDE]	–	4 (≈ 24.1 µM)	–	–	–	–	–	–
CC[C@H]1OC(=O)[C@H](C)[C@@H](O[C@H]2C[C@@](C)(OC)[C@@H](O)[C@H](C)O2)[C@H](C)[C@@H](O[C@@H]2O[C@H](C)C[C@H](N(C)C)[C@H]2O)[C@](C)(O)C[C@@H](C)C(=O)[C@H](C)[C@@H](O)[C@]1(C)O [ERYTHROMYCIN]	–	16 (≈ 21.8 µM)	4 (≈ 5.45 µM)	–	–	–	–	128 (≈ 174 µM)
CN[C@@H]1[C@H](O[C@H]2[C@H](O[C@H]3[C@H](O)[C@@H](O)[C@H](N=C(N)N)[C@@H](O)[C@@H]3N=C(N)N)O[C@@H](C)[C@]2(O)C=O)O[C@@H](CO)[C@H](O)[C@H]1O [STREPTOMYCIN]	0.25 (≈ 0.43 µM)	0.25 (≈ 0.43 µM)	–	2 (≈ 3.44 µM)	2 (≈ 3.44 µM)	–	–	–
